Measurements reported in ChEMBL document CHEMBL1629673, “Role of known molecular markers of resistance in the antimalarial potency of piperaquine and dihydroartemisinin in vitro” (Antimicrob Agents Chemother, 2009).

What was measured:
Plasmodium falciparum [1] = assay: Antiplasmodial activity against chloroquine-resistant Plasmodium falciparum 7G8 harboring D10 pfcrt allele infected in erythrocytes assessed as [3H]hypoxanthine incorporation in presence of piperaquine; assay type: functional
Plasmodium falciparum [2] = assay: microbe, parasite or virus in culture; details: C2, 3 h
Plasmodium falciparum [3] = assay: microbe, parasite or virus in culture; details: 7G8, 3 h
Plasmodium falciparum [4] = assay: microbe, parasite or virus in culture; details: K1, 3 h
Plasmodium falciparum [5] = assay: microbe, parasite or virus in culture; details: D10, 3 h
Plasmodium falciparum [6] = assay: Antiplasmodial activity against chloroquine-sensitive Plasmodium falciparum D10 harboring 7G8 pfcrt allele infected in erythrocytes assessed as [3H]hypoxanthine incorporation in presence of piperaquine; assay type: functional
Plasmodium falciparum [7] = assay: Antiplasmodial activity against chloroquine-resistant Plasmodium falciparum C6harboring 7G8 pfcrt allele infected in erythrocytes assessed as [3H]hypoxanthine incorporation in presence of piperaquine; assay type: functional, C6
Plasmodium falciparum [8] = assay: microbe, parasite or virus in culture; details: C3, 3 h
Plasmodium falciparum [9] = assay: Antiplasmodial activity against chloroquine-resistant Plasmodium falciparum 7G8 infected in erythrocytes assessed as [3H]hypoxanthine incorporation in presence of piperaquine; assay type: functional
Plasmodium falciparum [10] = assay: Antiplasmodial activity against chloroquine-resistant Plasmodium falciparum K1 infected in erythrocytes assessed as [3H]hypoxanthine incorporation in presence of piperaquine; assay type: functional
Plasmodium falciparum [11] = assay: Antiplasmodial activity against chloroquine-resistant Plasmodium falciparum 7G8 harboring parental pfcrt allele infected in erythrocytes assessed as [3H]hypoxanthine incorporation in presence of piperaquine; assay type: functional
Plasmodium falciparum [12] = assay: Antiplasmodial activity against chloroquine-resistant Plasmodium falciparum TM6 infected in erythrocytes assessed as [3H]hypoxanthine incorporation in presence of piperaquine; assay type: functional
Plasmodium falciparum [13] = assay: microbe, parasite or virus in culture; details: TM6, 3 h
Plasmodium falciparum [14] = assay: Antiplasmodial activity against chloroquine-sensitive Plasmodium falciparum 3D7 infected in erythrocytes assessed as [3H]hypoxanthine incorporation in presence of piperaquine; assay type: functional
Plasmodium falciparum [15] = assay: microbe, parasite or virus in culture; details: 7G8, 3 h; remark: listed apart in the source
Plasmodium falciparum [16] = assay: microbe, parasite or virus in culture; details: 7G8, 3 h; remark: listed apart in the source
Plasmodium falciparum [17] = assay: microbe, parasite or virus in culture; details: 3D7, 3 h
Plasmodium falciparum [18] = assay: microbe, parasite or virus in culture; details: C6, 3 h
Plasmodium falciparum [19] = assay: microbe, parasite or virus in culture; details: D10, 3 h; remark: listed apart in the source
Plasmodium falciparum [20] = assay: Antiplasmodial activity against chloroquine-sensitive Plasmodium falciparum C2 infected in erythrocytes assessed as [3H]hypoxanthine incorporation in presence of dihydroartimisinin; assay type: functional
Plasmodium falciparum [21] = assay: Antiplasmodial activity against chloroquine-resistant Plasmodium falciparum C6harboring 7G8 pfcrt allele infected in erythrocytes assessed as [3H]hypoxanthine incorporation in presence of dihydroartimisinin; assay type: functional, C6
Plasmodium falciparum [22] = assay: Antiplasmodial activity against chloroquine-resistant Plasmodium falciparum 7G8 harboring D10 pfcrt allele infected in erythrocytes assessed as [3H]hypoxanthine incorporation in presence of dihydroartimisinin; assay type: functional
Plasmodium falciparum [23] = assay: Antiplasmodial activity against chloroquine-sensitive Plasmodium falciparum D10 infected in erythrocytes assessed as [3H]hypoxanthine incorporation in presence of dihydroartimisinin; assay type: functional
Plasmodium falciparum [24] = assay: Antiplasmodial activity against chloroquine-resistant Plasmodium falciparum K1 infected in erythrocytes assessed as [3H]hypoxanthine incorporation in presence of dihydroartimisinin; assay type: functional
Plasmodium falciparum [25] = assay: Selectivity ratio of IC50 for chloroquine-resistant Plasmodium falciparum C3 harboring Dd2 pfcrt allele to IC50 for chloroquine-sensitive Plasmodium falciparum C2; assay type: functional
Plasmodium falciparum [26] = assay: Antiplasmodial activity against chloroquine-resistant Plasmodium falciparum 7G8 harboring parental pfcrt allele infected in erythrocytes assessed as [3H]hypoxanthine incorporation in presence of dihydroartimisinin; assay type: functional
Plasmodium falciparum [27] = assay: Antiplasmodial activity against chloroquine-resistant Plasmodium falciparum 7G8 infected in erythrocytes assessed as [3H]hypoxanthine incorporation in presence of dihydroartimisinin; assay type: functional
Plasmodium falciparum [28] = assay: Antiplasmodial activity against chloroquine-resistant Plasmodium falciparum TM6 infected in erythrocytes assessed as [3H]hypoxanthine incorporation in presence of dihydroartimisinin; assay type: functional
Plasmodium falciparum [29] = assay: Antiplasmodial activity against chloroquine-resistant Plasmodium falciparum C3 harboring Dd2 pfcrt allele infected in erythrocytes assessed as [3H]hypoxanthine incorporation in presence of dihydroartimisinin; assay type: functional
Plasmodium falciparum [30] = assay: Antiplasmodial activity against chloroquine-sensitive Plasmodium falciparum 3D7 infected in erythrocytes assessed as [3H]hypoxanthine incorporation in presence of dihydroartimisinin; assay type: functional
Plasmodium falciparum [31] = assay: Antiplasmodial activity against chloroquine-sensitive Plasmodium falciparum D10 harboring 7G8 pfcrt allele infected in erythrocytes assessed as [3H]hypoxanthine incorporation in presence of dihydroartimisinin; assay type: functional

C[C@H]1[C@@H](O)O[C@@H]2O[C@@]3(C)CC[C@H]4[C@H](C)CC[C@@H]1[C@@]24OO3 [ARTENIMOL]
fractional inhibitory concentration index (FICI) (Plasmodium falciparum [1]): 1.34 | IC50 (Plasmodium falciparum [2]): 0.8 nM | IC50 (Plasmodium falciparum [3]): 0.6 nM | IC50 (Plasmodium falciparum [4]): 1 nM | IC50 (Plasmodium falciparum [5]): 0.7 nM | fractional inhibitory concentration index (FICI) (Plasmodium falciparum [6]): 1.34 | fractional inhibitory concentration index (FICI) (Plasmodium falciparum [7]): 2.51 | IC50 (Plasmodium falciparum [8]): 1 nM | fractional inhibitory concentration index (FICI) (Plasmodium falciparum [9]): 2.86 | fractional inhibitory concentration index (FICI) (Plasmodium falciparum [10]): 1.27 | fractional inhibitory concentration index (FICI) (Plasmodium falciparum [11]): 0.8 | fractional inhibitory concentration index (FICI) (Plasmodium falciparum [12]): 1.25 | IC50 (Plasmodium falciparum [13]): 1 nM | fractional inhibitory concentration index (FICI) (Plasmodium falciparum [14]): 2.4 | IC50 (Plasmodium falciparum [15]): 1.3 nM | IC50 (Plasmodium falciparum [16]): 1.3 nM | IC50 (Plasmodium falciparum [17]): 0.6 nM | IC50 (Plasmodium falciparum [18]): 0.3 nM | IC50 (Plasmodium falciparum [19]): 0.7 nM

Clc1ccc2c(N3CCN(CCCN4CCN(c5ccnc6cc(Cl)ccc56)CC4)CC3)ccnc2c1 [PIPERAQUINE]
fractional inhibitory concentration index (FICI) (Plasmodium falciparum [20]): 1.59 | fractional inhibitory concentration index (FICI) (Plasmodium falciparum [21]): 2.51 | fractional inhibitory concentration index (FICI) (Plasmodium falciparum [22]): 1.34 | IC50 (Plasmodium falciparum [2]): 3.9 nM | fractional inhibitory concentration index (FICI) (Plasmodium falciparum [23]): 1.48 | fractional inhibitory concentration index (FICI) (Plasmodium falciparum [24]): 1.27 | fold change (FC) (Plasmodium falciparum [25]): 3 | IC50 (Plasmodium falciparum [3]): 9.1 nM | IC50 (Plasmodium falciparum [4]): 13.4 nM | fractional inhibitory concentration index (FICI) (Plasmodium falciparum [26]): 0.8 | IC50 (Plasmodium falciparum [8]): 11.5 nM | fractional inhibitory concentration index (FICI) (Plasmodium falciparum [27]): 2.86 | fractional inhibitory concentration index (FICI) (Plasmodium falciparum [28]): 1.25 | IC50 (Plasmodium falciparum [13]): 15.8 nM | IC50 (Plasmodium falciparum [15]): 11.2 nM | IC50 (Plasmodium falciparum [16]): 12 nM | fractional inhibitory concentration index (FICI) (Plasmodium falciparum [29]): 1.7 | fractional inhibitory concentration index (FICI) (Plasmodium falciparum [30]): 2.4 | fractional inhibitory concentration index (FICI) (Plasmodium falciparum [31]): 1.34 | IC50 (Plasmodium falciparum [17]): 3.4 nM | IC50 (Plasmodium falciparum [18]): 6.6 nM | IC50 (Plasmodium falciparum [19]): 8.1 nM
